Reference: PubChem BioAssay (NCI)
Where “and” joins values, the source holds several entries; their conditions need not be identical. Equal entries are not always repeated.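 Cultured in 96-well plates, cells were exposed to test compound for 48 hours across five concentrations. Here, GI50 denotes the concentration required for 50% inhibition of growth. Definition used: TGI = concentration required for complete inhibition of growth.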

Key:
Assay in all cases: inhibition of tumour cell growth, NCI panel, 48 h
[1] = test system: HOP-18 NSCLC
[2] = test system: SNB-78 CNS
[3] = test system: M19-MEL melanoma
[4] = test system: XF 498 CNS
[5] = test system: DLD-1 colon
[6] = test system: LXFL 529 NSCLC
[7] = test system: RXF-631 renal
[8] = test system: DMS 114 small cell lung
[9] = test system: MDA-N

Structure (SMILES) | TGI [1] | TGI [2] | TGI [3] | TGI [4] | TGI [5] | TGI [6] | TGI [7] | TGI [8] | also measured
CC(=O)Nc1ccc(OCC(O)CO)cc1 (stereo not drawn) | > 100 µM | > 100 µM | > 100 µM | > 100 µM | 54.1 µM | > 100 µM | – | – | –
N#CC1([N+](=O)[O-])C=C1c1ccccc1 (stereo not drawn) | – | > 100 µM | > 100 µM | – | > 100 µM | > 100 µM | > 100 µM | > 100 µM | –
N#CC(CC(=O)O)=C(c1ccccc1)c1ccccc1 | – | – | – | – | – | – | – | – | TGI [9]: > 100 µM
CC(=O)OC1(C#N)CC2OC1C1NC21 (stereo not drawn) | – | > 100 µM | > 100 µM | > 100 µM | > 100 µM | > 100 µM | > 100 µM | > 100 µM | –
CCCCCCC(=O)CC(=O)C(=O)Nc1ccccc1C | > 100 µM | > 100 µM | > 100 µM | > 100 µM | > 100 µM | > 100 µM | > 100 µM | > 100 µM | –
O=C1OC(=O)C2C1C1C(c3ccccc3)=C(c3ccccc3)C2(O)C2C(=O)OC(=O)C12 (stereo not drawn) | – | > 100 µM | > 100 µM | – | > 100 µM | > 100 µM | – | > 100 µM | –
CCOc1cc[n+](C(=C=[N-])C#N)cc1 | – | > 100 µM | > 100 µM | > 100 µM | > 100 µM | > 100 µM | > 100 µM | > 100 µM | –
CC(=O)CC(=O)ON(C)C(=O)Cc1ccccc1 | – | > 100 µM | > 100 µM | > 100 µM | > 100 µM | > 100 µM | – | > 100 µM | –
O=S1Cc2ccccc2CSS1 (stereo not drawn) | 89.1 µM | 62 µM | 44.9 µM | 34 µM | 41.1 µM | 27.2 µM | 48.5 µM | 34.6 µM | –
CCCC(CCC)C(=O)O | – | – | – | – | – | – | – | – | TGI [9]: > 100 µM
CC1CCC2[C@@H](C)COC3O[C@]4(C)CCC1C32OO4 (stereo partly drawn) | > 100 µM | > 100 µM | – | – | > 100 µM | > 100 µM | – | > 100 µM | –
CCC(=O)OCN1C(=O)C=CC1=O | – | – | – | – | – | – | – | – | TGI [9]: 31.4 µM
COc1c(OC2OC(CO)C(O)C(O)C2O)cc2c(c1OC)-c1ccc(OC)c(=O)cc1[C@@H](NC(C)=O)CC2 (stereo partly drawn) | > 100 µM | > 100 µM | > 100 µM | > 93 µM | > 100 µM | > 100 µM | > 100 µM | > 97 µM | –
Nc1ncnc2c1ncn2COC/C=C/I | > 100 µM | > 100 µM | > 100 µM | > 100 µM | > 100 µM | > 100 µM | > 100 µM | > 100 µM | –
CCOc1ccccc1NC(=O)C(=O)c1c(O)c2ccc(O)cc2oc1=O | > 100 µM | > 100 µM | > 100 µM | – | > 100 µM | > 100 µM | > 100 µM | – | –
N#CC12CC3(CCC1CCC1(C2)OCCO1)OCCO3 (stereo not drawn) | > 100 µM | > 100 µM | > 100 µM | > 100 µM | > 100 µM | > 100 µM | > 100 µM | > 100 µM | –
Cc1ccc(NC(=O)CC2C(=O)Nc3ccccc3S2(=O)=O)cc1C (stereo not drawn) | – | > 100 µM | > 100 µM | > 100 µM | > 100 µM | > 100 µM | > 100 µM | > 100 µM | –
CC(C)Cn1cnc2c(SCc3ccccn3)nc(N)nc21 | – | – | – | – | – | – | – | – | TGI [9]: > 100 µM
COC(=O)C(C(=O)C(=O)Nc1ccc(N)cc1[N+](=O)[O-])c1nc2ccc(Cl)cc2[nH]c1=O (stereo not drawn) | > 100 µM | > 100 µM | > 100 µM | > 100 µM | > 100 µM | – | – | > 100 µM | –
Cc1c(C(=O)Nc2ccc(Cl)cc2)nc(N)nc1-c1cccc(Cl)c1 | > 100 µM | > 100 µM | > 100 µM | – | > 100 µM | – | > 100 µM | > 100 µM | –
CC(=O)Nc1cc(CN2CCCCC2)c(O)c2ncccc12 | – | – | – | – | – | – | – | – | TGI [9]: > 100 µM
CC1=C(C(=O)NCc2ccccc2)C(c2ccccc2O)C(C(=O)NCc2ccccc2)=C(C)N1 | 60.1 µM | 95.2 µM | 35.7 µM | 31.2 µM | 36 µM | 28.7 µM | – | 35.7 µM | –

Structure (SMILES) | TGI [1] | TGI [2] | TGI [3] | TGI [4] | TGI [5] | TGI [6] | TGI [7] | TGI [8] | also measured
CCCCCC/C(CC(=O)CCC(=O)NCCc1ccccc1)=N\NC(=O)c1ccc2ccccc2c1O | 63.9 µM | > 100 µM | 88.4 µM | > 100 µM | > 100 µM | > 100 µM | > 100 µM | – | –
N#CCCn1c(CCC(=O)Nc2ccc(Cl)cc2Cl)n[nH]c1=S | – | > 100 µM | > 100 µM | > 100 µM | > 100 µM | > 100 µM | > 100 µM | > 100 µM | –
COc1ccc(S(=O)(=O)N/N=C/CN2C(=O)c3ccccc3C2=O)cc1 | – | – | > 100 µM | > 100 µM | > 100 µM | > 100 µM | – | – | –
C=C1C(OCCO)OC2O[C@]3(C)CCC4[C@H](C)CCC1C24OO3 (stereo partly drawn) | – | – | – | – | – | – | – | – | GI50 [9]: 14.8 µM; TGI [9]: 87.9 µM
CC(=O)Nc1ccccc1S(=O)c1ccccc1 (stereo not drawn) | > 100 µM | > 100 µM | > 100 µM | > 100 µM | > 100 µM | > 100 µM | > 100 µM | > 100 µM | –
CN/N=C(/CC(=O)c1sc(NNC(C)=O)nc1C)C(=O)Nc1ccc(OC)cc1OC | – | > 100 µM | > 100 µM | > 100 µM | > 100 µM | > 100 µM | – | > 100 µM | –
CC(C)CC1NC(=O)C(C(C)C)NC(=O)CC(C)COC(=O)C(CC(C)C)N(C)C(=O)C(C(C)C)NC(=O)C(C(C)C)OC1=O (stereo not drawn) | – | – | – | – | – | – | – | – | TGI [9]: > 50 µM
C=C1CC(CC(=O)C(C)CC2CC(=C)C(=O)O2)OC1=O (stereo not drawn) | 47.3 µM | 49.7 µM | 30.3 µM | 43.3 µM | 30.4 µM | 27.8 µM | > 100 µM | 39 µM | –
CC(=O)N1CCN(C=S)CC1 | – | > 100 µM | > 100 µM | > 100 µM | > 100 µM | > 100 µM | > 100 µM | > 100 µM | –
ClCCCN1CCCCC1CCl (stereo not drawn) | > 100 µM | – | > 100 µM | – | > 100 µM | > 100 µM | – | > 100 µM | –
Cn1c(=O)c2[nH]cnc2n(C)c1=O.[CH2-]C(Cc1cccc2cc(C(=O)O)c(=O)oc12)OC.[Hg+2].[OH-] (stereo not drawn) | – | – | – | – | – | – | – | – | GI50 [9]: 17.2 µM; TGI [9]: 30.9 µM
O=C1CC2OCC=C3CN4CCC56c7ccccc7N1C5C2C3CC46 (stereo not drawn) (tested in a mixture with another compound) | – | – | – | – | – | – | – | – | GI50 [9]: > 50 µg/mL; TGI [9]: > 50 µg/mL
O=C(OCc1ccccc1)c1ccccc1-c1c2ccc(=O)cc-2oc2cc(OCc3ccccc3)ccc12 | – | > 100 µM | > 100 µM | 33.6 µM | 39.1 µM | > 100 µM | – | – | –
O=C(O)CSc1nnc2c3ccccc3c3ccccc3c2n1 | – | – | – | – | – | – | – | – | TGI [9]: > 100 µM
CN(C)c1ccc(/C=c2\sc3nnc(Cc4ccccc4)n3c2=O)cc1 | > 100 µM | > 100 µM | > 100 µM | > 100 µM | > 100 µM | > 100 µM | – | > 10 µM and 33.8 µM | GI50 [1]: > 100 µM; GI50 [2]: > 100 µM; GI50 [4]: > 100 µM; GI50 [8]: > 10 µM; GI50 [5]: > 100 µM; GI50 [6]: > 100 µM
NCCNc1ncnc2ccc(Cl)cc12 | – | – | – | – | – | – | – | – | TGI [9]: > 100 µM
COc1ccc([Se]c2ccc(OC)cc2)cc1 | > 100 µM | – | > 100 µM | > 100 µM | > 100 µM | – | – | > 100 µM | –
CCC12C=CCN3CCC4(C(=C(C(=O)OC)C1)Nc1ccccc14)[C@H]32 (stereo partly drawn) | > 100 µM | – | > 100 µM | – | > 100 µM | > 100 µM | – | 49.5 µM | –
NNC(=O)N/N=C1/C(=O)N(c2ccc(Cl)c(Cl)c2)C(=O)C(=O)C1c1nc2ccccc2o1 (stereo not drawn) | > 100 µM | > 100 µM | > 100 µM | – | > 100 µM | > 100 µM | > 100 µM | > 100 µM | –
Nc1ncnc2c1ncn2C1OC(C(=O)OCCO)C(O)C1O (stereo not drawn) | – | – | – | – | – | – | – | – | TGI [9]: > 100 µM
COc1ccc(-c2cc(=O)c3cccnc3[nH]2)cc1 | – | – | – | – | – | – | – | – | GI50 [9]: 20.8 µM; TGI [9]: 78.3 µM
C#Cc1ccccc1N1C(=O)C=CC1=O | – | > 100 µM | > 100 µM | – | > 100 µM | > 100 µM | – | > 100 µM | –
